Experimental data taken from paper PMC10235067, “Increased renal elimination of endogenous and synthetic pyrimidine nucleosides in concentrative nucleoside transporter 1 deficient mice” (Nature Communications, 2023).
Where “and” joins values, the source holds several entries; their conditions need not be identical. Equal values may be shown once. Where a name gives a salt, the structure may show the parent alone.

Experiments:
[1] = Gemcitabine urine pharmacokinetics (renal excretion) in Slc28a1+/+ and Slc28a1-/- mice
Protocol: THU was added to the mouse urine samples upon collection and frozen until analysis. […] Five microliters of the diluted samples were transferred to a 96-well autosampler plate then 10 µL of internal standard mixture was added and mixed. […] The plate was then transferred to the 4 °C autosampler for analysis.
The chromatographic separation was performed on a Thermo Accucore aQ 2.6 µm, 100 ×2.1 mm column at 30 °C using a gradient with a 10 µL injection volume. The mobiles phases were 1 mM ammonium acetate in deionized water pH 6.8 and acetonitrile. The total run time was 5.5 min. […] The LC–MS/MS analysis was conducted on a Thermo Vanquish UHPLC with a TSQ Quantiva mass spectrometer equipped with an electrospray ionization source.

[2] = tested on: CNT1; details: read-out: Km (affinity for CNT1); cited from earlier work
[3] = cited from earlier work
[4] = Gemcitabine plasma pharmacokinetics in Slc28a1+/+ and Slc28a1-/- mice; details: Gemcitabine in plasma, KO mice, iv gemcitabine 50mg/kg, per mouse

Nc1ccn([C@@H]2O[C@H](CO)[C@@H](O)C2(F)F)c(=O)n1 [dFdC, Gemcitabine hydrochloride, reference compound]
Cp (Gemcitabine) ([1]; Figure 5 G, H, I, KO mice, 5 Minutes, individual mice): 667.756 µg/mL and 701.121 µg/mL and 742.057 µg/mL and 708.576 µg/mL and 1006.774 µg/mL | Cp (Gemcitabine) ([1]; Figure 5 G, H, I, KO mice, 10 Minutes, individual mice): 1196.136 µg/mL and 1117.096 µg/mL and 1176.76 µg/mL and 1333.848 µg/mL and 1383.016 µg/mL and 1407.258 µg/mL | Cp (Gemcitabine) ([1]; Figure 5 G, H, I, KO mice, 15 Minutes, individual mice): 1417.457 µg/mL and 1463.209 µg/mL and 1417.045 µg/mL and 1464.236 µg/mL and 1528.485 µg/mL and 1605.582 µg/mL | Cp (Gemcitabine) ([1]; Figure 5 G, H, I, KO mice, 30 Minutes, individual mice): 1020.435 µg/mL and 1043.589 µg/mL and 1004.789 µg/mL and 686.314 µg/mL and 637.597 µg/mL | Cp (Gemcitabine) ([1]; Figure 5 G, H, I, KO mice, 60 Minutes, individual mice): 806.557 µg/mL and 703.249 µg/mL and 814.631 µg/mL and 838.872 µg/mL and 677.262 µg/mL | Cp (Gemcitabine) ([1]; Figure 5 G, H, I, KO mice, 120 Minutes, individual mice): 1007.916 µg/mL and 1001.638 µg/mL and 923.671 µg/mL and 928.827 µg/mL and 1022.245 µg/mL | Cp (Gemcitabine) ([1]; Figure 5 G, H, I, KO mice, 240 Minutes, individual mice): 131.108 µg/mL and 117.705 µg/mL and 128.911 µg/mL and 104.939 µg/mL and 51.416 µg/mL and 148.894 µg/mL | Cp (Gemcitabine) ([1]; Figure 5 G, H, I, WT mice, 5 Minutes, individual mice): 473.332 µg/mL and 486.741 µg/mL and 465.952 µg/mL and 485.933 µg/mL and 493.479 µg/mL | Cp (Gemcitabine) ([1]; Figure 5 G, H, I, WT mice, 10 Minutes, individual mice): 654.272 µg/mL and 654.234 µg/mL and 642.732 µg/mL and 677.281 µg/mL and 755.524 µg/mL | Cp (Gemcitabine) ([1]; Figure 5 G, H, I, WT mice, 15 Minutes, individual mice): 869.257 µg/mL and 882.561 µg/mL and 865.564 µg/mL and 871.549 µg/mL and 735.964 µg/mL | Cp (Gemcitabine) ([1]; Figure 5 G, H, I, WT mice, 30 Minutes, individual mice): 865.074 µg/mL and 694.859 µg/mL and 1051.246 µg/mL and 934.229 µg/mL and 1018.271 µg/mL | Cp (Gemcitabine) ([1]; Figure 5 G, H, I, WT mice, 60 Minutes, individual mice): 691.965 µg/mL and 701.388 µg/mL and 530.199 µg/mL and 662.975 µg/mL and 688.86 µg/mL | Cp (Gemcitabine) ([1]; Figure 5 G, H, I, WT mice, 120 Minutes, individual mice): 410.29 µg/mL and 371.477 µg/mL and 406.197 µg/mL and 640.633 µg/mL and 369.675 µg/mL | Cp (Gemcitabine) ([1]; Figure 5 G, H, I, WT mice, 240 Minutes, individual mice): 394.084 µg/mL and 419.478 µg/mL and 409.47 µg/mL and 387.436 µg/mL and 378.97 µg/mL | Dose in Urine (% of total dose administered) ([1]; Slc28a1+/+ mice, single i.v. dFdC 50 mg/kg): 7.53% | Dose in Urine (% of total dose administered) ([1]; Slc28a1-/- mice, single i.v. dFdC 50 mg/kg): 13.73% | concentration at 5 min ([1]; mouse, urine, intravenous, 50 mg/kg, Cp (Gemcitabine), Figure 5 G, H, I, KO mice, 5 Minutes, individual mice): 690 µg/mL | concentration at 30 min ([1]; mouse, urine, intravenous, 50 mg/kg, Cp (Gemcitabine), Figure 5 G, H, I, KO mice, 30 Minutes, individual mice): 995 µg/mL | concentration at 60 min ([1]; mouse, urine, intravenous, 50 mg/kg, Cp (Gemcitabine), Figure 5 G, H, I, KO mice, 60 Minutes, individual mice): 801 µg/mL | concentration at 120 min ([1]; mouse, urine, intravenous, 50 mg/kg, Cp (Gemcitabine), Figure 5 G, H, I, KO mice, 120 Minutes, individual mice): 977 µg/mL | concentration at 5 min ([1]; mouse, urine, intravenous, 50 mg/kg, Cp (Gemcitabine), Figure 5 G, H, I, WT mice, 5 Minutes, individual mice): 447 µg/mL | concentration at 10 min ([1]; mouse, urine, intravenous, 50 mg/kg, Cp (Gemcitabine), Figure 5 G, H, I, WT mice, 10 Minutes, individual mice): 628 µg/mL | concentration at 15 min ([1]; mouse, urine, intravenous, 50 mg/kg, Cp (Gemcitabine), Figure 5 G, H, I, WT mice, 15 Minutes, individual mice): 859 µg/mL | concentration at 30 min ([1]; mouse, urine, intravenous, 50 mg/kg, Cp (Gemcitabine), Figure 5 G, H, I, WT mice, 30 Minutes, individual mice): 725 µg/mL | concentration at 60 min ([1]; mouse, urine, intravenous, 50 mg/kg, Cp (Gemcitabine), Figure 5 G, H, I, WT mice, 60 Minutes, individual mice): 864 µg/mL | concentration at 120 min ([1]; mouse, urine, intravenous, 50 mg/kg, Cp (Gemcitabine), Figure 5 G, H, I, WT mice, 120 Minutes, individual mice): 403 µg/mL | concentration at 240 min ([1]; mouse, urine, intravenous, 50 mg/kg, Cp (Gemcitabine), Figure 5 G, H, I, WT mice, 240 Minutes, individual mice): 400 µg/mL | renal clearance (CLr) in Slc28a1-/- mice higher than in Slc28a1+/+ mice ([1]; non-compartmentally calculated, single i.v. dFdC 50 mg/kg): 126.63% | Km [2]: 12 to 36 µM | Log P [3]: −1.5 | AUCINF_D_obs [4]: 916.304 kg·ng·min/mL/mg and 1339.88 kg·ng·min/mL/mg and 778.001 kg·ng·min/mL/mg and 1050.65 kg·ng·min/mL/mg and 1326.68 kg·ng·min/mL/mg and 1607.46 kg·ng·min/mL/mg | AUCINF_D_pred [4]: 916.913 kg·ng·min/mL/mg and 1340.31 kg·ng·min/mL/mg and 775.108 kg·ng·min/mL/mg and 1031 kg·ng·min/mL/mg and 1323.42 kg·ng·min/mL/mg and 1604.92 kg·ng·min/mL/mg | AUCINF_obs [4]: 45815.2 ng·min/mL and 66994.2 ng·min/mL and 38900.1 ng·min/mL and 52532.6 ng·min/mL and 66334.2 ng·min/mL and 80373 ng·min/mL | AUCINF_pred [4]: 45845.6 ng·min/mL and 67015.6 ng·min/mL and 38755.4 ng·min/mL and 51550 ng·min/mL and 66171.1 ng·min/mL and 80246 ng·min/mL
